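Results reflect a 48-hour exposure of cells in 96-well plates to compound at five concentrations. At the GI50, growth is halved.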 The source made the active and inactive calls. Rule as the data show it: active = GI50 up to about 1.1 µM and inactive = higher.
Columns and labels:
Test in all cases: NCI tumour cell line growth inhibition, 48 h
HCC 2998 = tested on: HCC 2998
SF-268 = tested on: SF-268
Malme-3M = tested on: Malme-3M
SF-295 = tested on: SF-295
OVCAR-8 = tested on: OVCAR-8
KM12 = tested on: KM12
MOLT-4 = tested on: MOLT-4
LOX IMVI = tested on: LOX IMVI
COLO 205 = tested on: COLO 205
HCT-116 = tested on: HCT-116
RXF 393 = tested on: RXF 393
KM-20L2 = tested on: KM-20L2
ACHN = tested on: ACHN
SK-OV-3 = tested on: SK-OV-3
EKVX = tested on: EKVX
SK-MEL-2 = tested on: SK-MEL-2
HOP-92 = tested on: HOP-92
SK-MEL-5 = tested on: SK-MEL-5
MDA-MB-435 = tested on: MDA-MB-435
NCI/ADR-RES = tested on: NCI/ADR-RES

Structure (SMILES)	GI50 (HCC 2998)	GI50 (SF-268)	GI50 (Malme-3M)	GI50 (SF-295)	GI50 (OVCAR-8)	GI50 (KM12)	GI50 (MOLT-4)	GI50 (LOX IMVI)	GI50 (COLO 205)	GI50 (HCT-116)	GI50 (RXF 393)	GI50 (KM-20L2)	GI50 (ACHN)	GI50 (SK-OV-3)	GI50 (EKVX)	GI50 (SK-MEL-2)	GI50 (HOP-92)	GI50 (SK-MEL-5)	GI50 (MDA-MB-435)	GI50 (NCI/ADR-RES)
O=C(O)CC1CC=C[C@H]2c3cc4c(cc3C(=O)NC12)OCO4 (some centres undefined)	> 75 µM (inactive)	> 75 µM (inactive)	> 75 µM (inactive)	> 75 µM (inactive)	> 75 µM (inactive)	> 75 µM (inactive)	> 75 µM (inactive)	> 75 µM (inactive)	> 75 µM (inactive)	> 75 µM (inactive)	> 75 µM (inactive)	> 75 µM (inactive)	> 75 µM (inactive)	> 75 µM (inactive)	> 75 µM (inactive)					
Cc1cc(NS(=O)(=O)c2ccc(NC(=O)c3cccc4c(=O)c5ccccc5[nH]c34)cc2)no1	36.5 µM (inactive)	30.5 µM (inactive)	63.1 µM (inactive)	> 10 µM (inactive)	12.5 µM (inactive)	78.3 µM (inactive)	39.4 µM (inactive)	31.4 µM (inactive)	50.5 µM (inactive)	36.9 µM (inactive)		> 100 µM (inactive)	65.6 µM (inactive)	14.9 µM (inactive)	43.6 µM (inactive)	34.7 µM (inactive)	29.5 µM (inactive)	40.8 µM (inactive)		
CCCN(CCC)C(=O)c1nc(N)nc(-c2ccc(OC)cc2)c1-c1ccc(OC)cc1		> 100 µM (inactive)	> 100 µM (inactive)	> 100 µM (inactive)	> 100 µM (inactive)	> 100 µM (inactive)	11.2 µM (inactive)		> 100 µM (inactive)	> 100 µM (inactive)		> 100 µM (inactive)	> 100 µM (inactive)	> 100 µM (inactive)	> 100 µM (inactive)	> 100 µM (inactive)	82.6 µM (inactive)	> 100 µM (inactive)		
CC(=O)Nc1ccc(S(=O)(=O)N/N=C/c2cc(I)cc([N+](=O)[O-])c2O)cc1	> 100 µM (inactive)	32.9 µM (inactive)	46.3 µM (inactive)	> 100 µM (inactive)	> 100 µM (inactive)	> 100 µM (inactive)	32.7 µM (inactive)	80.9 µM (inactive)	> 100 µM (inactive)		21.5 µM (inactive)	> 100 µM (inactive)	> 100 µM (inactive)	85.3 µM (inactive)	60.5 µM (inactive)	41.9 µM (inactive)		44 µM (inactive)		
CCCCN/C(=N/C#N)NCc1ccccc1	88.5 µM (inactive)	> 100 µM (inactive)	> 100 µM (inactive)	> 100 µM (inactive)	> 100 µM (inactive)	> 100 µM (inactive)	> 100 µM (inactive)	> 100 µM (inactive)	> 100 µM (inactive)	> 100 µM (inactive)		> 100 µM (inactive)	> 100 µM (inactive)	> 100 µM (inactive)	> 100 µM (inactive)	> 100 µM (inactive)	> 100 µM (inactive)	> 100 µM (inactive)		
COc1ccc(C(SC2C(O)C(CO)OC2n2ccc(=O)[nH]c2=O)(c2ccccc2)c2ccc(OC)cc2)cc1 (centres undefined)	14.8 µM (inactive)	17.9 µM (inactive)	20.7 µM (inactive)	7.57 µM (inactive)	19.1 µM (inactive)	15.8 µM (inactive)	26.9 µM (inactive)	16.9 µM (inactive)	17.7 µM (inactive)	14.7 µM (inactive)	18.1 µM (inactive)		29 µM (inactive)	13.7 µM (inactive)	17.1 µM (inactive)	15.1 µM (inactive)	15.6 µM (inactive)	14.7 µM (inactive)	9.1 µM (inactive)	18.9 µM (inactive)
CCN(CC)C(=S)N/N=C(/c1ccccc1)c1ccccn1	2.15 µM (inactive)	0.0256 µM (active)	0.929 µM (active)	0.342 µM (active)	0.0362 µM (active)	0.0942 µM (active)	< 0.0507 µM (active)	0.2 µM (active)	0.0275 µM (active)	0.0454 µM (active)	0.277 µM (active)		0.264 µM (active)	0.673 µM (active)	0.583 µM (active)	0.711 µM (active)	1.65 µM (inactive)	0.209 µM (active)	0.705 µM (active)	0.27 µM (active)
O=c1cc(-c2ccc(O)cc2)oc2cc(O)cc(O)c12 [APIGENIN]	23.9 µM (inactive)	27.5 µM (inactive)	33.9 µM (inactive)	27.2 µM (inactive)		23.1 µM (inactive)	23 µM (inactive)	21.4 µM (inactive)	38.9 µM (inactive)	24.2 µM (inactive)		28.8 µM (inactive)	15.1 µM (inactive)	34.9 µM (inactive)	33.5 µM (inactive)	29.9 µM (inactive)	20.2 µM (inactive)	25.4 µM (inactive)		
